Marks after values point to notes of the source that are not given here.
Legend:
Format in all cases: in vivo
[1] = test system: Erysiphe graminis f. sp. tritici; test: Test A: wheat powdery mildew, test suspension sprayed on wheat seedlings, disease rating; conditions: 200 ppm test suspension, 100 = 100% disease control, 0 = no control
[2] = test system: Puccinia recondite f sp. tritici; test: Test B: wheat leaf rust, test suspension sprayed on wheat seedlings, disease rating;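 also: 200 ppm unless marked * meaning 40 ppm or ** meaning 10 ppm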
Septoria nodorum = test: Test D: wheat glume blotch, test suspension sprayed on wheat seedlings, disease rating; conditions: 200 ppm test suspension
Septoria tritici = test: Test E: wheat leaf blotch, test suspension sprayed on wheat seedlings, disease rating;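 also: 200 ppm unless marked * meaning 40 ppm or ** meaning 10 ppm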
Botrytis cinerea = test: Test H: tomato Botrytis, test suspension sprayed on tomato seedlings, disease rating; conditions: 200 ppm test suspension
Fusarium graminearum = test: whole plant or invertebrate
Rhizoctonia oryzae = test: Test I: turf brown patch, test suspension sprayed on creeping bent grass seedlings, disease rating; conditions: 200 ppm test suspension
Alternaria solani = test: Test G: tomato early blight, test suspension sprayed on seedlings, disease rating;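 also: 200 ppm unless marked * meaning 40 ppm or ** meaning 10 ppm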
Phytophthora infestans = test: whole plant or invertebrate
Pythium aphanidermatum = test: Test L: bluegrass pythium blight, test suspension sprayed on bluegrass seedlings, disease rating;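 also: 200 ppm unless marked * meaning 40 ppm or ** meaning 10 ppm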
[3] = test system: Colletotrichum orbiculare; test: Test F: cucumber Colletotrichum anthracnose, test suspension sprayed on cucumber seedlings, disease rating; conditions: for Test F disease control rating: 200 ppm test suspension

SMILES	Test A disease control rating [1] [%]	Test B disease control rating ([2]; 200 ppm test suspension) [%]	Test D disease control rating (Septoria nodorum) [%]	Test E disease control rating (Septoria tritici; 200 ppm test suspension) [%]	Test H disease control rating (Botrytis cinerea) [%]	Test C disease control rating (Fusarium graminearum; 200 ppm test suspension) [%]	further results
COc1cc(Nc2nccc(-c3c(-c4ccccc4)nn4c3CCCC4)n2)ccc1F [compound 182]	92	77	97	100	81		
CCNc1nccc(-c2c(-c3ccccc3)nn3c2CCCC3)n1 [compound 143]	96	100	100	100		99	Test I disease control rating (Rhizoctonia oryzae): 86%
Fc1ccc(-c2nn3c(c2-c2ccnc(NC4CCOCC4)n2)COCC3)cc1 [compound 129]	0		99		84		Test B disease control rating ([2]; 40 ppm test suspension (*)): 98* %; Test C disease control rating (Fusarium graminearum; 40 ppm test suspension (*)): 100* %; Test E disease control rating (Septoria tritici; 40 ppm test suspension (*)): 81* %; Test G disease control rating (Alternaria solani; 40 ppm test suspension (*)): 95* %; Test I disease control rating (Rhizoctonia oryzae): 53%; Test J disease control rating (Phytophthora infestans; 40 ppm test suspension (*)): 95* %; Test L disease control rating (Pythium aphanidermatum; 40 ppm test suspension (*)): 100* %
CCNc1nccc(-c2c(-c3ccccc3)nn3c2COCC3)n1 [compound 183]		100	97	100	81	99	
Fc1ccc(-c2nn3c(c2-c2ccnc(NCc4ccco4)n2)CCCC3)cc1 [compound 78]	58		69		0		Test C disease control rating (Fusarium graminearum; 40 ppm test suspension (*)): 99* %; Test E disease control rating (Septoria tritici; 40 ppm test suspension (*)): 60* %; Test F disease control rating [3]: 0%; Test G disease control rating (Alternaria solani; 40 ppm test suspension (*)): 0* %; Test I disease control rating (Rhizoctonia oryzae): 0%; Test J disease control rating (Phytophthora infestans; 40 ppm test suspension (*)): 17* %; Test L disease control rating (Pythium aphanidermatum; 40 ppm test suspension (*)): 0* %
CCCNc1nccc(-c2c(-c3ccccc3)nn3c2CCCC3)n1 [compound 179]	75	100	99	100		100	Test I disease control rating (Rhizoctonia oryzae): 89%
Fc1ccc(-c2nn3c(c2-c2ccnc(NCC4CCOCC4)n2)CCCC3)cc1 [compound 80]	82		82		44		Test C disease control rating (Fusarium graminearum; 40 ppm test suspension (*)): 98* %; Test E disease control rating (Septoria tritici; 40 ppm test suspension (*)): 93* %; Test F disease control rating [3]: 0%; Test G disease control rating (Alternaria solani; 40 ppm test suspension (*)): 68* %; Test I disease control rating (Rhizoctonia oryzae): 0%; Test J disease control rating (Phytophthora infestans; 40 ppm test suspension (*)): 33* %; Test L disease control rating (Pythium aphanidermatum; 40 ppm test suspension (*)): 0* %
c1cc(-c2c(-c3ccsc3)nn3c2CCCC3)nc(NC2CC2)n1 [compound 180]	79	99	98	100	96	96	
Cc1cccc(-c2nn3c(c2-c2ccnc(NC4CC4)n2)CCCC3)c1 [compound 181]	97	100	100	100	94	100	Test G disease control rating (Alternaria solani; 200 ppm test suspension): 99%
CCNc1nccc(-c2c(-c3cccc(C)c3)nn3c2CCCC3)n1 [compound 186]	79	99	99	95	99		Test G disease control rating (Alternaria solani; 200 ppm test suspension): 99%
CNc1nccc(-c2c(-c3ccccc3)nn3c2CCCC3)n1 [compound 142]	95	100	98	100	53	97	Test G disease control rating (Alternaria solani; 200 ppm test suspension): 0%
CC(CN1C(=O)c2ccccc2C1=O)Nc1nccc(-c2c(-c3ccc(F)cc3)nn3c2CCCC3)n1 (stereo not drawn) [compound 71]	0		64		0		Test B disease control rating ([2]; 40 ppm test suspension (*)): 0* %; Test C disease control rating (Fusarium graminearum; 40 ppm test suspension (*)): 0* %; Test E disease control rating (Septoria tritici; 40 ppm test suspension (*)): 33* %; Test F disease control rating [3]: 0%; Test G disease control rating (Alternaria solani; 40 ppm test suspension (*)): 0* %; Test J disease control rating (Phytophthora infestans; 40 ppm test suspension (*)): 9* %; Test L disease control rating (Pythium aphanidermatum; 40 ppm test suspension (*)): 97* %
CC(C)Nc1nccc(-c2c(-c3ccc(F)cc3)nn3c2COCC3)n1.Cl [compound 128]	0		99		89		Test B disease control rating ([2]; 40 ppm test suspension (*)): 96* %; Test C disease control rating (Fusarium graminearum; 40 ppm test suspension (*)): 99* %; Test E disease control rating (Septoria tritici; 40 ppm test suspension (*)): 94* %; Test F disease control rating [3]: 99%; Test G disease control rating (Alternaria solani; 40 ppm test suspension (*)): 99* %; Test J disease control rating (Phytophthora infestans; 40 ppm test suspension (*)): 100* %; Test L disease control rating (Pythium aphanidermatum; 40 ppm test suspension (*)): 100* %
c1ccc(-c2nn3c(c2-c2ccnc(NC4CC4)n2)CCCC3)cc1 [Compound 27, N-cyclopropyl-4-(4,5,6,7-tetrahydro-2-phenylpyrazolo[1,5-a]pyridin-3-yl)-2-pyrimidinamine]							pest or weed control at 200 ppm ([1]; Blumeria graminis, 192 h): 96%; pest or weed control at 40 ppm ([2]; Puccinia, 192 h, 40 ppm test suspension (*)): 95%; pest or weed control at 40 ppm (Fusarium graminearum; Fusarium graminearum, in Triticum aestivum, 192 h, read-out: Test C disease control rating): 99%; pest or weed control at 200 ppm (Septoria nodorum; Parastagonospora nodorum, 216 h): 98%; pest or weed control at 200 ppm (Septoria tritici; Zymoseptoria tritici, 504 h, 200 ppm test suspension): 97%; pest or weed control at 10 ppm ([3]; Colletotrichum orbiculare, 144 h, 10 ppm test suspension (**)): 66%; pest or weed control at 10 ppm (Alternaria solani; Alternaria solani, 168 h, 10 ppm test suspension (**)): 95%; pest or weed control at 200 ppm (Phytophthora infestans; Phytophthora infestans, in Solanum lycopersicum, 120 h, read-out: Test J disease control rating): 97%; pest or weed control at 200 ppm (Pythium aphanidermatum; Pythium aphanidermatum, 120 h, 200 ppm test suspension): 98%
CCCNc1nccc(-c2c(-c3cccc(C)c3)nn3c2CCCC3)n1 [compound 185]	74	97	99	97	99		Test G disease control rating (Alternaria solani; 200 ppm test suspension): 95%
CNc1nccc(-c2c(-c3cccc(C)c3)nn3c2CCCC3)n1 [compound 187]	79	99	92	99	92		
Fc1ccc(-c2nn3c(c2-c2ccnc(NC4CCOCC4)n2)CCCC3)cc1 [compound 49]	76	99	100	90		100	Test J disease control rating (Phytophthora infestans; 200 ppm test suspension): 100%; Test L disease control rating (Pythium aphanidermatum; 200 ppm test suspension): 99%
OC1(CNc2nccc(-c3c(-c4ccc(F)cc4)nn4c3CCCC4)n2)CC1 [compound 44]	91	85	89	100		99	Test J disease control rating (Phytophthora infestans; 200 ppm test suspension): 65%; Test L disease control rating (Pythium aphanidermatum; 200 ppm test suspension): 0%
CCCNc1nccc(-c2c(-c3ccccc3)nn3c2COCC3)n1 [compound 184]	61	99	90	100	80	99	Test G disease control rating (Alternaria solani; 200 ppm test suspension): 98%
Fc1cccc(-c2nn3c(c2-c2ccnc(NC4CC4)n2)CCC3)c1 [compound 103]	85	95	99	100		99	Test J disease control rating (Phytophthora infestans; 200 ppm test suspension): 99%; Test L disease control rating (Pythium aphanidermatum; 200 ppm test suspension): 100%
CC(C)Nc1nccc(-c2c(-c3ccc(F)cc3)nn3c2CSCC3)n1 [compound 110]	0	95	60	17		92	Test J disease control rating (Phytophthora infestans; 200 ppm test suspension): 99%; Test L disease control rating (Pythium aphanidermatum; 200 ppm test suspension): 100%
Fc1ccccc1-c1nn2c(c1-c1ccnc(NC3CC3)n1)CCC2 [compound 99]	0	94	89	98		99	Test J disease control rating (Phytophthora infestans; 200 ppm test suspension): 99%; Test L disease control rating (Pythium aphanidermatum; 200 ppm test suspension): 100%
CC(=O)N1CCCc2c(-c3ccnc(NC4CCOCC4)n3)c(-c3ccc(F)cc3)nn21 [Compound 139]	73		99		0		Test B disease control rating ([2]; 40 ppm test suspension (*)): 90* %; Test C disease control rating (Fusarium graminearum; 40 ppm test suspension (*)): 95* %; Test E disease control rating (Septoria tritici; 40 ppm test suspension (*)): 29* %; Test G disease control rating (Alternaria solani; 40 ppm test suspension (*)): 99* %; Test I disease control rating (Rhizoctonia oryzae): 40%; Test J disease control rating (Phytophthora infestans; 40 ppm test suspension (*)): 93* %; Test L disease control rating (Pythium aphanidermatum; 40 ppm test suspension (*)): 100* %
CC(=O)OCC(C)Nc1nccc(-c2c(-c3ccc(F)cc3)nn3c2CCCC3)n1 (stereo not drawn) [compound 67]	0	100	78	93		100	Test J disease control rating (Phytophthora infestans; 200 ppm test suspension): 99%; Test L disease control rating (Pythium aphanidermatum; 200 ppm test suspension): 100%

Source: patent US8288375B2, “Fungicidal bicyclic pyrazoles” (E.I. du Pont de Nemours and Company, priority 2007, dated 2012)
